For one compound, IC50 results are on record in US20250051301A1, “MUTANT IDH1 AND IDH2 INHIBITOR AND APPLICATION THEREOF” (Betta Pharmaceuticals Co., Ltd, priority 2022, published 2025).

In assay [1] the target is T1, IDH1^R132H (Homo sapiens, UniProt O75874, R132H). The experiment in a line: 2-HG assay in cells (U87 cell line stably transfected with IDH1-R132H). The format is cell-based. The conditions noted are these: 72 hours, numeric values, read-out: 2-HG in medium (IC50, nM) (IDH1^R132H). The procedure:
The compounds were detected for the inhibition of 2-HG production in the U87 cell line stably transfected with IDH1-R132H and the culture supernatant of TF-1 cells stably transfected with IDH2-R140Q. • (1) The cultured cells were collected by centrifugation, then suspended in a cell culture solution, counted, and seeded in a 96-well cell culture plate at 160 μL of cell suspension/well (20000 cells/well for U87-IDH1-R132H; 10000 cells/well for TF-1-IDH2-R140Q). • (2) A 96-well plate dilution was taken, and the compounds to be tested were diluted in a gradient manner in DMSO and a cell culture solution; and then 40 μL of the gradient-diluted compounds to be tested were added to the 96-well plate on which cells have been plated. […] Finally, the plate was cultured in a 37° C. incubator containing 5% CO2. • (3) After the compounds were incubated with the cells for 72 hours, the cell culture plate was taken out and centrifuged at 1500 rpm for 5 minutes, and then 100 μL of the medium supernatant was aspirated for 2-HG detection. • (4) 2-HG detection: the cell supernatant was diluted with purified water, 30 μL of the diluted sample was taken into a 1.5 ml centrifuge tube, and 200 μL of the internal standard solution was added. The mixture was mixed uniformly by vortex and centrifuged at 3200 rpm at 4° C. for 15 minutes. 100 μL of the supernatant solution was diluted with water at a 1:1 ratio and then detected by LC-MS. Analyte Peak Area was used to represent the 2-HG levels. • (5) Inhibition rate calculation, formula: % Inhibition=(1−Analyte Peak Area_sample/Analyte Peak Area_max)*100%, wherein Analyte Peak Area_sample represents the Analyte Peak Area of the sample to which the compound was added; Analyte Peak Area_max represents the average value of Analyte Peak Area of positive control wells (representing the absence of the compound). The curve fitting was performed using Graphpad Prism software to obtain IC50 values, and the test results were as shown in table 2.

Assay [2] concerns the target T1, IDH1^R132H. The experiment in a line: Enzyme activity inhibition assay (fluorescence-based), IDH1 R132H. The conditions noted are these: numeric values. The format is biochemical. The procedure:
The inhibitory ability of the compounds on the enzyme activities of IDH1^R132H and IDH2^R140Qwas detected and expressed as the half inhibitory concentration (IC50) value. AG-881 was used as a positive control compound. In this experiment, compounds were screened on enzymes IDH1^R132H and IDH2^R140Q using a fluorescence-based method (initial concentration: 10000 nM, 3-fold dilution, 10 concentrations, and single-well detection). • (1) Preparation of 1×assay buffer. • (2) Preparation of compound concentration gradient: the compounds to be tested were assayed at an initial concentration of 10000 nM, with 3-fold dilution and 10 concentrations, and diluted into 200-fold the final concentration in 100% DMSO solution in a 384-well plate. • (3) 250 nL of DMSO and 250 nL of diluted compounds were transferred to a reaction plate with Echo 550. • (4) IDH2^R140Q enzyme detection: 25 μL of an IDH2^R140Q enzyme solution was added, and the mixture was incubated for 60 minutes; then 25 μL of a substrate solution was added, and the mixture was incubated for 150 minutes; then 25 μL of a detection buffer was added, and the mixture was shaken for 1 minute and incubated for 60 minutes; and finally, Synergy 2, Ex544/Em590 cutoff 590 was used for reading. • (5) IDH1^R132H enzyme detection: 40 μL of a mixture solution of an IDH1^R132H enzyme at the 1.25-fold final concentration and NADPH was added, and the mixture was incubated for 60 minutes; then 10 μL of a substrate solution at the 5-fold final concentration was added, and the mixture was incubated for 90 minutes; then 25 μL of a detection buffer at the 3-fold final concentration was added, and the mixture was shaken for 1 minute. and finally, Synergy 2, Ex544/Em590 cutoff 590 was used for reading. • (8) Inhibition rate calculation, formula: % Inhibition=(RFU_sample−RFU_min)/(RFU_max−RFU_min)*100%, wherein RFU-sample represents the fluorescence intensity of a sample; RFU-min represents the average value of negative control wells and represents the fluorescence intensity with an enzyme; and RFU-max represents the average value of positive control wells and represents the fluorescence intensity without an enzyme. The curve fitting was performed using Graphpad Prism software to obtain IC50 values, and the test results were as shown in table 2.

T1 sequence (O75874 whole entry R132H): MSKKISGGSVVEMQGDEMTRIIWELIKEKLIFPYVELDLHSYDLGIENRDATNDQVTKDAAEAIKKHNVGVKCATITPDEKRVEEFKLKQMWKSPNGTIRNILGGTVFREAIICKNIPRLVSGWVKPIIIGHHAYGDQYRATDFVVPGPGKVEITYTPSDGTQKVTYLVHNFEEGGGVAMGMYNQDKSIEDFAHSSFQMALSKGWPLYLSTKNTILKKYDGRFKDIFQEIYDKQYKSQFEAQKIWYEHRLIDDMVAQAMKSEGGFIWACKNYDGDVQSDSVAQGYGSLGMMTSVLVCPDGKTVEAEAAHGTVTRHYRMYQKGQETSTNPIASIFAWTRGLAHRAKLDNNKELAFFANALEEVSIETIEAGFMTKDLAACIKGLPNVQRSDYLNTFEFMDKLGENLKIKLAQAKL

A word on the IC50: it is the concentration at which inhibition is half-maximal. As for `C[C@@H](Nc1nc(N[C@H](C)C(F)(F)F)nc(-c2cc(F)c(N)c(Cl)n2)n1)C(F)(F)F` [Example 5, 6-(5-amino-6-chloro-4-fluoropyridin-2-yl)-N^2,N^4-bis((R)-1,1,1-trifluoropropyl-2-yl)-1,3,5-triazine-2,4-diamine], the IC50 in assay [1] was 0.5 nM; in assay [2], 8 nM.
